Reference: PubChem BioAssay AID1963982 (Molecular Pharmacology Branch, DTP, NCI, 2024)
pIC50: −log10 of the molar value. “And” between values parts separate entries of the source, which are not always exact repeats. Identical values can stand only once.

Test system: 313798-341-R-J2-PDC spheroids, viability
Test: Anticancer human tumor 313798-341-R-J2-PDC patient-derived cervical squamous cell carcinoma cell line growth inhibition [PI3K]
Conditions: spheroids with HUVEC and MSC; for viability, T/C: stronger effect = lower value
From the text: Combinatorial screen of targeted agents with the PI3K inhibitors inavolisib, alpelisib, duvelisib, and copanlisib in multi-cell type tumor spheroids
A high-throughput screen of multi-cell type tumor spheroids was designed to identify active combinations of targeted small molecules and PI3K pathway inhibitors. Complex spheroids include a stromal component modeled by human endothelial cells (HUVEC) and fibroblasts modeled by human mesenchymal stem cells (MSCs). The concentration ranges selected for each drug and investigational agent were based upon clinically achievable concentrations if the clinical Cmax of the agent was known.
Compounds. The drugs and investigational agents: inavolisib (NSC800729), alpelisib (NSC765974), duvelisib (NSC772469), copanlisib (NSC816437), ipatasertib (NSC767898), afuresertib (NSC778305), talazoparib (NSC767125), sapanisertib (NSC764658), selumetinib (NSC741078), tovorafenib (DAY101, NSC766906), vemurafenib (NSC761431), ravoxertinib (NSC781343), sotorasib (NSC818433), MRTX1133 (NSC 836407), abemaciclib (NSC 768073), palbociclib (NSC758247), venetoclax (NSC 766270), SY5609 (NSC837396), enzalutamide (NSC755605), and darolutamide (NSC825331), were obtained from the National Cancer Institute (NCI) Developmental Therapeutics Program Chemical Repository. The FDA-approved anticancer drug set is available from the NCI Developmental Therapeutics Program. […] The stock solutions were prepared in dimethyl sulfoxide (DMSO, Sigma-Aldrich, St. Louis, MO, cat. D2650) at 800-fold the tested concentration and stored at -70 degrees C prior to their use. All drugs and investigational agents were tested over a range starting from a high concentration at or near the clinical Cmax and decreasing in half-log increments. If the clinical Cmax for an agent had not been determined, the highest concentration tested was 10 microM.
Cell Culture. All cells were maintained in an incubator at 37 degrees C and 5% CO2 with 95% humidity. The PDC lines were cultured according to standard operating procedures established by the NCI PDMR (https://pdmr.cancer.gov/sops/default.htm). All PDCs were thawed and cultured in Matrigel-coated flasks prepared with a working solution of 1X Ham's F-12 nutrient mix, without supplementation (Invitrogen, Waltham, MA, cat. 11765054), 100 U/mL penicillin-streptomycin (Invitrogen, cat. 15140122), and 2.5% Matrigel (Corning Inc., Corning, NY, cat. 354248) for the first three passages. The 354836-022-R-J1-PDC, 475296-252-R-J1-PDC, and 997726-040-R-J2-PDC lines were cultured in 6A media, which includes advanced DMEM/F-12 (Thermo Fisher Scientific, cat. 12634028), 10 mM HEPES (Thermo Fisher Scientific, cat. 15630080), 1X GlutaMAX supplement (Thermo Fisher Scientific, cat. 35050061), 0.1 mg/mL primocin (InvivoGen, San Diego, CA, cat. ant-pm-2), 10% defined fetal bovine serum, heat inactivated (HyClone Laboratories Inc., Logan, UT, cat. SH30070.03HI), 50% L-WRN conditioned media (ATCC, cat. CRL-3276), 1.25 mM N-Acetyl-L-cysteine (Sigma-Aldrich, cat. A9165), 10 mM nicotinamide (Sigma-Aldrich, cat. N0636), 1X B-27 supplement (Thermo Fisher Scientific, cat. 17504044), 1X N-2 supplement (Thermo Fisher Scientific, cat. 17502048), and 10 microM Y-27632 dihydrochloride (Tocris Bioscience, Bristol, United Kingdom, cat. 1254). The 624824-186-R-J2-PDC line was cultured in 6C/Colon 1B media, which includes all 6A media components plus 50 ng/mL human EGF recombinant protein (Thermo Fisher Scientific, cat. PHG0311). […]

[1] = compound alone, run of 04/24/2023
[2] = compound alone, run of 04/25/2023
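Note: spheroids exposed to compounds for seven days.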
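Throughout, for viability, T/C: 100% = DMSO vehicle control viability.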

| pIC50 (curve of compound) | IC50 (curve of compound) | pIC50 [1] | pIC50 [2] | IC50 [2] | IC50 [1] | Structure (SMILES) | viability, T/C (compound 0.0316 µM) | viability, T/C (compound 0.1 µM) | viability, T/C (compound 0.316 µM) | viability, T/C (compound 1 µM) | viability, T/C (compound 3.16 µM) | viability, T/C (compound 10 µM) | viability, T/C (compound 0.000316 µM) | viability, T/C (compound 0.001 µM) | viability, T/C (compound 0.00316 µM) | viability, T/C (compound 0.01 µM) | viability, T/C (compound 0.00949 µM) | viability, T/C (compound 0.03 µM) | viability, T/C (compound 0.0949 µM) | viability, T/C (compound 0.3 µM) |
| --- | --- | --- | --- | --- | --- | --- | --- | --- | --- | --- | --- | --- | --- | --- | --- | --- | --- | --- | --- | --- |
| < 5.00 |  |  |  |  |  | C=CC(=O)N1CCN(c2nc(=O)n(-c3c(C)ccnc3C(C)C)c3nc(-c4c(O)cccc4F)c(F)cc23)C(C)C1 (stereo unspecified) | 100% [middle of 4 runs] | 95% [middle of 4 runs] | 95.7% [middle of 4 runs] | 97.1% [middle of 4 runs] | 105% [middle of 4 runs] | 96.5% (2×) and 104% and 105% |  |  |  |  |  |  |  |  |
| < 7.00 |  |  |  |  |  | CC(=O)c1c(C)c2cnc(Nc3ccc(N4CCNCC4)cn3)nc2n(C2CCCC2)c1=O | 101% (2×) and 97.3% | 94.9% and 101% and 110% |  |  |  |  | 105% (2×) and 108% | 105% (2×) and 110% | 109% and 99.2% and 92.1% | 101% and 103% and 118% |  |  |  |  |
|  | 2 µM [middle of 4 runs] |  |  |  |  | CC(C)NCC(C(=O)N1CCN(c2ncnc3c2C(C)CC3O)CC1)c1ccc(Cl)cc1 (stereo unspecified) | 97.6% [middle of 4 runs] | 96.4% [middle of 4 runs] | 92.8% [middle of 4 runs] | 65.8% [middle of 4 runs] | 41.6% [middle of 4 runs] | 31.5% [middle of 4 runs] |  |  |  |  |  |  |  |  |
|  | 71.3 nM [middle of 4 runs] |  |  |  |  | CC(C)n1nc(-c2ccc3oc(N)nc3c2)c2c(N)ncnc21 | 77.7% [middle of 4 runs] | 38.6% (2×) and 36.7% and 38.7% |  |  |  |  | 99% [middle of 4 runs] | 98.2% [middle of 4 runs] | 101% [middle of 4 runs] | 86.7% [middle of 4 runs] |  |  |  |  |
| < 5.00 |  |  |  |  |  | CC(Cn1ccc(-c2ccc(C#N)c(Cl)c2)n1)NC(=O)c1cc(C(C)O)[nH]n1 (stereo unspecified) | 98.1% and 107% and 99.7% | 111% and 96.9% and 101% | 101% and 107% and 113% | 113% and 97.7% and 93.9% | 99% and 105% and 104% | 99.1% and 101% and 93.9% |  |  |  |  |  |  |  |  |
|  |  | 6.28 and 6.04 and < 6.00 |  |  |  | CC(Nc1ccc2c(c1)OCCn1cc(N3C(=O)OCC3C(F)F)nc1-2)C(N)=O (stereo unspecified) | 103% [middle of 8 runs] |  | 76.6% [middle of 8 runs] | 53.9% [middle of 8 runs] |  |  |  |  | 96.5% [middle of 8 runs] | 103% [middle of 8 runs] |  |  |  |  |
|  |  |  | < 5.00 |  |  | CC(Nc1ncnc2nc[nH]c12)c1cc2cccc(Cl)c2c(=O)n1-c1ccccc1 (stereo unspecified) | 100% [middle of 8 runs] | 95.1% [middle of 8 runs] | 99.5% [middle of 8 runs] | 97.6% [middle of 8 runs] | 94.7% [middle of 8 runs] | 89.6% [middle of 8 runs] |  |  |  |  |  |  |  |  |
|  |  |  |  |  |  | CC1(C)CCC(CN2CCN(c3ccc(C(=O)NS(=O)(=O)c4ccc(NCC5CCOCC5)c([N+](=O)[O-])c4)c(Oc4cnc5[nH]ccc5c4)c3)CC2)=C(c2ccc(Cl)cc2)C1 | 101% [middle of 4 runs] | 97.8% [middle of 4 runs] | 101% [middle of 4 runs] | 94.4% [middle of 4 runs] | 78.9% [middle of 4 runs] |  |  |  |  |  |  |  |  |  |
|  |  |  |  |  |  | CC1(C)CCC(Nc2ncc(C(F)(F)F)c(-c3c[nH]c4c(P(C)(C)=O)c(C#N)ccc34)n2)CN1 (stereo unspecified) | 56.6% [middle of 4 runs] | 46.7% [middle of 4 runs] | 50.4% [middle of 4 runs] | 53.8% [middle of 4 runs] | 58.9% [middle of 4 runs] |  |  |  |  |  |  |  |  |  |
|  | 6.37 µM [middle of 4 runs] |  |  |  |  | CCCS(=O)(=O)Nc1ccc(F)c(C(=O)c2c[nH]c3ncc(-c4ccc(Cl)cc4)cc23)c1F | 98.2% [middle of 4 runs] | 102% [middle of 4 runs] | 101% [middle of 4 runs] | 100% [middle of 4 runs] | 107% (2×) and 99.1% and 108% | 18.7% [middle of 4 runs] |  |  |  |  |  |  |  |  |
| < 6.00 |  |  |  |  |  | CCN1CCN(Cc2ccc(Nc3ncc(F)c(-c4cc(F)c5nc(C)n(C(C)C)c5c4)n3)nc2)CC1 | 103% [middle of 4 runs] | 102% [middle of 4 runs] | 120% [middle of 4 runs] | 122% [middle of 4 runs] |  |  |  |  |  | 99.5% [middle of 4 runs] |  |  |  |  |
| < 5.00 |  |  |  |  |  | CNC(=O)c1ccc(N2C(=S)N(c3ccc(C#N)c(C(F)(F)F)c3)C(=O)C2(C)C)cc1F | 104% and 102% (2×) and 89% | 99.5% [middle of 4 runs] | 104% [middle of 4 runs] | 102% [middle of 4 runs] | 105% [middle of 4 runs] | 102% [middle of 4 runs] |  |  |  |  |  |  |  |  |
|  |  |  |  | 80.2 nM [middle of 7 runs] |  | COc1c(OCCCN2CCOCC2)ccc2c3n(c(=NC(=O)c4cnc(N)nc4)nc12)CCN3 | 84.5% [middle of 7 runs] | 42.1% [middle of 7 runs] | 14.9% [middle of 7 runs] | 11.9% [middle of 7 runs] |  |  |  |  | 101% [middle of 7 runs] | 102% [middle of 7 runs] |  |  |  |  |
| < 5.00 and 5.23 |  |  |  |  |  | C[C@@H](NC(=O)c1ncnc(N)c1Cl)c1ncc(C(=O)Nc2cc(C(F)(F)F)c(Cl)cn2)s1 | 94.6% [middle of 4 runs] | 102% [middle of 4 runs] | 99.1% [middle of 4 runs] | 97.8% [middle of 4 runs] | 120% [middle of 4 runs] |  |  |  |  |  |  |  |  |  |
|  |  |  |  |  | 4.93 µM [middle of 8 runs] | Cc1nc(NC(=O)N2CCCC2C(N)=O)sc1-c1ccnc(C(C)(C)C(F)(F)F)c1 (stereo unspecified) | 99.9% [middle of 8 runs] | 97.5% [middle of 8 runs] | 102% [middle of 8 runs] | 90.6% [middle of 8 runs] | 59.9% [middle of 8 runs] | 36.2% [middle of 8 runs] |  |  |  |  |  |  |  |  |
| 5.86 and < 5.52 |  |  |  |  |  | Cn1cnc2c(F)c(Nc3ccc(Br)cc3Cl)c(C(=O)NOCCO)cc21 |  |  |  |  |  |  |  |  |  |  | 97.9% [middle of 4 runs] | 92% [middle of 4 runs] | 89.5% [middle of 4 runs] | 93.5% [middle of 4 runs] |
| < 5.00 |  |  |  |  |  | Cn1nccc1Nc1nccc(-c2ccn(C(CO)c3ccc(Cl)c(F)c3)c(=O)c2)n1 (stereo unspecified) | 98.7% and 101% (2×) and 96.5% | 95.3% [middle of 4 runs] | 98.6% [middle of 4 runs] | 100% [middle of 4 runs] | 116% [middle of 4 runs] | 96.9% and 104% (2×) and 105% |  |  |  |  |  |  |  |  |
| < 7.00 |  |  |  |  |  | Cn1ncnc1[C@H]1c2n[nH]c(=O)c3cc(F)cc(c23)N[C@@H]1c1ccc(F)cc1 | 95.9% [middle of 4 runs] | 89% [middle of 4 runs] |  |  |  |  |  | 94.9% [middle of 4 runs] | 94.7% [middle of 4 runs] | 104% (2×) and 88.8% and 114% |  |  |  |  |
